Assay: molar heat capacity at constant pressure
Conditions: 101.33 kPa, Vacuum adiabatic calorimetry

CCCC(=O)OC [methyl butanoate]
molar heat capacity at constant pressure [J/K/mol]
Conditions	Crystal	Liquid
130 K	99.17	–
131.79 K	100.55	–
133.79 K	101.43	–
135.8 K	102.27	–
137.8 K	103.03	–
139.79 K	103.9	–
140 K	103.65	–
141.79 K	104.89	–
143.79 K	105.51	–
145.78 K	106.36	–
147.78 K	107.25	–
149.77 K	107.92	–
150 K	108.14	–
151.89 K	109.06	–
153.86 K	109.91	–
155.85 K	110.69	–
157.83 K	111.73	–
159.81 K	112.47	–
160 K	112.62	–
161.79 K	113.29	–
163.77 K	114.29	–
165.74 K	115.26	–
167.72 K	116.18	–
169.56 K	116.65	–
170 K	117.11	–
171.52 K	117.81	–
173.49 K	119.09	–
175.45 K	120.75	–
177.41 K	122.58	–
179.36 K	125.17	–
180 K	121.59	–
181.29 K	129.69	–
183.2 K	139.88	–
185.04 K	158.37	–
186.78 K	216.75	–
188.21 K	448.34	–
189.16 K	1561.8	–
189.7 K	8659.7	–
190 K	126.08	–
190.09 K	126.12	184.56
191.08 K	185.22	–
192.79 K	–	184.74
194.49 K	–	184.98
196.18 K	–	185.21
197.88 K	–	185.04
199.57 K	–	185.15
200 K	–	185.19
201.25 K	–	185.01
202.85 K	–	185.47
202.93 K	–	185.15
204.61 K	–	185.47
204.73 K	–	185.64
206.27 K	–	185.39
206.69 K	–	185.68
207.94 K	–	185.44
208.64 K	–	186
210 K	–	185.83
210.58 K	–	186.03
212.53 K	–	186
214.48 K	–	186.17
216.42 K	–	186.44
218.37 K	–	186.11
220 K	–	186.51
220.31 K	–	186.33
222.24 K	–	186.86
224.17 K	–	186.8
226.1 K	–	186.88
228.02 K	–	187.23
229.93 K	–	187.61
230 K	–	187.52
231.85 K	–	187.86
233.68 K	–	187.83
235.58 K	–	188.04
237.48 K	–	188.4
239.37 K	–	188.78
240 K	–	188.78
241.26 K	–	188.74
243.14 K	–	189.23
245.01 K	–	189.8
246.89 K	–	190.04
248.76 K	–	190.11
250 K	–	190.21
250.62 K	–	190.43
252.49 K	–	190.56
254.35 K	–	190.93
256.2 K	–	190.97

Source: the NIST ThermoML archive (doi:10.1016/j.jct.2011.10.001)
